{
  "source": "paper PMC9282638",
  "about": "“A Suite of Activity-Based Probes To Dissect the KLK Activome in Drug-Resistant Prostate Cancer” (Journal of the American Chemical Society, 2021)",
  "type_in_all_cases": "biochemical",
  "key": {"KLK2 [1]": {"target": "T1, KLK2 (Homo sapiens, UniProt P20151)", "T1 construct": "purchased R&D Systems", "T1 sequence (P20151 25-261)": "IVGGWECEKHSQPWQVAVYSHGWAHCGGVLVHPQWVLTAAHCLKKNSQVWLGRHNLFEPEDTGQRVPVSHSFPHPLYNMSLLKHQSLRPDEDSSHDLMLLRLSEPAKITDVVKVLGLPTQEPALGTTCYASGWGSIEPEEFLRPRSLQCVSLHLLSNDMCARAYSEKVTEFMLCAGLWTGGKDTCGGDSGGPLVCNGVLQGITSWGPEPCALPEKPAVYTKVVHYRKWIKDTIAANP", "experiment": "Inhibition of KLK2 after incubation with 50 µM probe (Figure S8)", "conditions": "30 minutes", "method": "Table S1: Antibodies used throughout this project\nProtein Supplier Cat. No. Host /clonal Immunogen\nKLK2 Abcam Ab124899 Rabbit Mono Synthetic peptide within amino […]\nKLK3 SCBT sc-7316 Mouse Mono Full length KLK3 of human origin\nKLK14 Abcam Ab128957 Rabbit Mono Synthetic peptide within the C- […]\nTransferrin Abcam Ab66952 Rabbit Poly Full length Transferrin of human […]\nHSP90 SCBT sc-69703 Mouse Mono Full length HSP90 of human\nIn gel-fluorescence: LNCaP conditioned media (50 µg) was treated with a fluorescent activity-based probe for 1 h. After 1 h, proteins were precipitated using the aforementioned procedure and resuspended in a 3:1 ratio of PBS and sample loading buffer to a concentration of 1 mg/mL. After boiling for 5 min, 10 µL of sample was loaded on to a hand cast 12 % Bis-Tris gel and proteins were separated by SDS-PAGE as described above. Gels were then scanned for fluorescence at the appropriate wavelength.\nImmunoprecipitation: LNCaP conditioned media (100 µg) was treated with the appropriate ABP for 1h. Proteins were precipitated using the CHCl3/MeOH procedure outlined above and resuspended in RIPA buffer (20 mM Tris, 150 mM NaCl, 1 mM EDTA, 1mM EGTA, 1 % NP-40, 1 % sodium deoxycholate, 2.5 mM sodium pyrophosphate, 1 mM glycerophosphate, 1 mM Na3VO4 pH 7.5) to a concentration of 1 mg/mL. […]"}, "KLK14 [2]": {"target": "T2, KLK14 (Homo sapiens, UniProt Q9P0G3)", "T2 construct": "purchased R&D Systems", "T2 sequence (Q9P0G3 25-251)": "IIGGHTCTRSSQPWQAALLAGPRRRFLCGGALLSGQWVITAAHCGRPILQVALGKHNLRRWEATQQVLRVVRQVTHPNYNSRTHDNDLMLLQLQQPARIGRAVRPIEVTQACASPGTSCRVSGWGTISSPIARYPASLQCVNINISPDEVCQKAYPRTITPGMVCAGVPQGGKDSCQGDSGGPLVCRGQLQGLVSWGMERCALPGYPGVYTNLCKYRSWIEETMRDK", "experiment": "Inhibition of KLK14 after incubation with 50 µM probe (Figure S8)", "conditions": "30 minutes"}, "KLK2 [3]": {"target": "T1, KLK2", "experiment": "Determination of kinact/KI, fluorogenic substrate kinetic assay", "conditions": "for kinact/KI: mean ± SEM (N = 3)", "text": "1.1 Chemicals and Reagents\nAll chemicals and reagents were purchased from commercial suppliers and used without further purification. Rink Amide resin (100-200 mesh) and 2-Chlorotrityl chloride resin (100-200 mesh, 1% DVB) were obtained from Merck. Natural Fmoc-amino acids were obtained from AGTC Bioproducts Ltd. Unnatural Fmoc-amino acids were obtained from Fluorochem, Alfa Aesar, VWR, Merck, Iris Biotech, Bachem or Sigma Aldrich. Culture media, fetal bovine serum, trypsin, antibiotics and chemicals required for differentiation of osteoprogenitor cells were obtained from Sigma Aldrich, Gibco or Invitrogen. Amicon 3 KDa Centrifugal filter units were obtained from Merck. Recombinant human KLK2 and KLK14 were obtained from R&D Systems and activated using the supplier’s protocol. All remaining chemical reagents were obtained from VWR, Sigma Aldrich or Merck. […]\nFluorescent plate-based enzymatic assays were carried out using an Envision 2104 Multilabel Plate Reader (PerkinElmer) operating in kinetic mode for a minimum of 20 min with excitation/emission […]\nSpecificity […]\nwas calculated by normalizing RFUs-1 to the highest value, which was set at 100 %.\nCalculations were made in GraphPad Prism 5.\nDetermination of kcat/KM: The KLK2 substrate and KLK14 substrate were serially diluted in the appropriate KLK assay buffer and 25 μL was added to the wells of a 96-well plate. Next, 25 μL of KLK2 (1.5 nM) or KLK14 (75 pM) was added to each well containing the substrate and the enzyme-substrate reaction was monitored for at least 10 min. The linear portion of each progress curve was used to calculate relative fluorescence units per second (RFUs-1).\nKM, kcat, and kcat/KM parameters were determined by nonlinear regression in GraphPad Prism 5 (GraphPad Software). Each experiment was repeated three times and the results are presented as an average ± SEM.\nDetermination of kinact/KI: Under pseudo-first order conditions, a fixed amount of KLK2 (1.5 nM) or KLK14 (37 pM) was incubated with peptidyl-DPP analogue at different concentrations in the presence of 5 µM of substrate. The pseudo first-order rate constant, kobs, was calculated for each probe concentration using non-linear regression analysis in GraphPad Prism 5. The obtained values were plotted against probe concentration to afford the apparent second order rate constant kinact(app)/KI. The absolute value of the second order rate constant was then obtained by adjusting for the substrate competition factor (1 + [S]/Km), where S is the concentration of substrate in the assay and KM is the Michaelis Menten constant for that substrate/enzyme reaction.\n2.5 Cell Migration Assays\nCell migration: The assay was performed as per the manufacturer’s protocol (https://www.corning.com/catalog/cls/documents/protocols/an_Chemotaxis_protocol.pdf).\nBriefly, LNCaP-WT, LNCaP-mK14 and LNCaP-K14 cells were grown to 80% confluency in RPMI media supplemented with 5 % FBS. The media was then aspirated, the cells were washed with 2 mL PBS (3*) and incubated with serum-free RPMI (without phenol red) supplemented with 10 nM DHT ± 100 ng/mL Dox for 24 h. Cells were trypsinized, washed twice with serum-free RPMI and resuspended in serum-free RPMI. 100,000 cells in 100 µL of serum-free RPMI was then added to the transwell inserts placed in a 24-well plate (Corning […]\nFigure S15: KLK2 and KLK14 substrates. (A) Structures (B) Optimal assay conditions for […]\nS19) inhibitors (C) Michaelis-Menten (K M) and rate (kcat) constants for KLK substrates"}, "KLK14 [4]": {"target": "T2, KLK14", "experiment": "Determination of kinact/KI, fluorogenic substrate kinetic assay", "conditions": "for kinact/KI: mean ± SEM (N = 3)"}, "[5]": {"conditions": "KLK14 probe optimization series"}},
  "data": [
    {"smiles": "CCC[C@H](NC(=O)[C@H](CCC(N)=O)NC(=O)[C@H](CC(N)=O)NC(=O)CCCCCNC(=O)CCCC[C@@H]1SC[C@@H]2NC(=O)N[C@@H]21)C(=O)NC(c1ccc(C(N)=O)cc1)P(=O)(Oc1ccccc1)Oc1ccccc1", "note": "(stereo partly drawn) [compound 20]", "values": [
      {"measurement": "inhibition of KLK2", "setting": "KLK2 [1]", "result": "no inhibition"},
      {"measurement": "inhibition of KLK14", "setting": "KLK14 [2]", "result": "no inhibition"}
    ]},
    {"smiles": "CC(C)(C)C(NC(=O)CCCCCNC(=O)CCCCC1SCC2NC(=O)NC21)C(=O)NC(CCN)C(=O)NC(Cc1ccc(O)cc1)C(=O)NC(c1ccc(NC(=N)N)cc1)P(=O)(Oc1ccccc1)Oc1ccccc1", "note": "(stereo not drawn) [compound 31, Tle-Dab-Tyr-Arg]", "values": [
      {"measurement": "selectivity (fold-change)", "setting": "KLK2 [3]; KLK2 probe optimization series, KLK2 over KLK14", "result": 33, "unit": "fold"},
      {"measurement": "kinact/KI", "setting": "KLK2 [3]; KLK2 probe optimization series", "result": "3080 ± 87", "unit": "M⁻¹ s⁻¹"},
      {"measurement": "kinact/KI", "setting": "KLK14 [4]; KLK2 probe optimization series", "result": "94 ± 7", "unit": "M⁻¹ s⁻¹"}
    ]},
    {"smiles": "CCC(NC(=O)C(CCN)NC(=O)C(Cc1ccc2ccccc2c1)NC(=O)CCCCCNC(=O)CCCCC1SCC2NC(=O)NC21)C(=O)NC(c1ccc(NC(=N)N)cc1)P(=O)(Oc1ccccc1)Oc1ccccc1", "note": "(stereo not drawn) [compound 39, 2Nal-Dab-Abu-Arg]", "values": [
      {"measurement": "kinact/KI", "setting": "KLK2 [3]; [5]", "result": "204 ± 13", "unit": "M⁻¹ s⁻¹"},
      {"measurement": "selectivity (fold-change)", "setting": "KLK14 [4]; KLK14 probe optimization series, KLK14 over KLK2", "result": 220, "unit": "fold"},
      {"measurement": "kinact/KI", "setting": "KLK14 [4]; [5]", "result": "44500 ± 1980", "unit": "M⁻¹ s⁻¹"},
      {"measurement": "fold higher potency toward KLK14", "setting": "KLK14 [4]; relative to compound 32", "result": 80, "unit": "fold"}
    ]}
  ]
}
